Assay results from US20080280879A1, “SUBSTITUTED HETEROCYCLIC DERIVATIVES AND THEIR PHARMACEUTICAL USE AND COMPOSITIONS” (priority 2007, published 2008).
In brackets after ≈: the same amount, converted by molar mass.

Columns and labels:
Assay type in all cases: cell-based, Staphylococcus aureus
Staph aureus 1095 MRSA = experiment: MIC, microtiter broth dilution (CLSI M7-A7), Assay 1, Table 12 column A, no serum; conditions: Assay 1, no serum; for MIC: Staphylococcus aureus, MRSA
Method: (§1) The assays described herein include a panel of bacterial isolates of Staphylococcus aureus. Assay 1 comprises the strains noted in Columns A through E, and Assay 2 comprises the strains noted in Columns F through H. The assays are performed in microtiter trays according to Methods for Dilution Antimicrobial Susceptibility Tests for Bacteria that Grow Aerobically; Approved Standard-7th edition (M7-A7) and interpreted according to the Performance Standards for Antimicrobial Susceptibility Testing; 16th Informational Supplement (M100-S16) published by Clinical Laboratory Standards Institute (CLSI). The antibacterial activity is presented in the form of a minimum inhibitory concentration (MIC) value in μg/ml format. The MIC value represents the lowest concentration of drug measured which prevented macroscopically visible growth under the conditions and specific doses tested. The compounds were initially dissolved in DMSO as 30 mM stocks and diluted accordingly to adjust to a concentration of 10 mg/ml or the compounds were dissolved in DMSO at a concentration of 10 mg/ml. For assessment of activity in the presence of human serum, S. aureus 1146 and S. aureus 1031 were inoculated into Mueller-Hinton Broth with 50% pooled inactivated human serum. In some cases, compounds were tested more than once in a particular assay. Where noted, the MIC value shown in Table 12 represents the geometric mean of the data from multiple runs.
(§2) It should be understood that the data in columns A-H represents MIC data in μg/ml and the notation “<=” means ‘less than or equal to’.

Staph aureus 1146 [1] = experiment: MIC, microtiter broth dilution (CLSI M7-A7), Assay 1, Table 12 column B, no serum; conditions: for MIC: Staphylococcus aureus, 1146, Staph aureus 1146, Assay 1, no serum; for MIC, column B: Staph aureus 1146, Assay 1, no serum
Method: as §1, §2

Staph aureus 1146 [2] = experiment: MIC in Mueller-Hinton Broth with 50% pooled inactivated human serum, Assay 1, Table 12; conditions: for MIC: Staphylococcus aureus, 1146, Staph aureus 1146, Assay 1, 50% human serum, read-out: MIC, column C; for MIC, column C: Staph aureus 1146, Assay 1, 50% human serum
Method: as §1, §2

Staph aureus 2811 = experiment: MIC, microtiter broth dilution (CLSI M7-A7), Assay 1, Table 12 column D, no serum; conditions: for MIC: Staphylococcus aureus, 2811, Staph aureus 2811, Assay 1, no serum; for MIC, column D: Staph aureus 2811, Assay 1, no serum
Method: as §1, §2

Staph aureus 2812 = experiment: MIC, microtiter broth dilution (CLSI M7-A7), Assay 1, Table 12 column E, no serum; conditions: for MIC: Staphylococcus aureus, 2812, Staph aureus 2812, Assay 1, no serum; for MIC, column E: Staph aureus 2812, Assay 1, no serum
Method: as §1, §2

Molecule	MIC (Staph aureus 1095 MRSA) [µg/mL]	MIC (Staph aureus 1146 [1]) [µg/mL]	MIC (Staph aureus 1146 [2]) [µg/mL]	MIC (Staph aureus 2811) [µg/mL]	MIC (Staph aureus 2812) [µg/mL]	MIC, column A (Staph aureus 1095 MRSA)	MIC, column B (Staph aureus 1146 [1])	MIC, column C (Staph aureus 1146 [2]) [µg/mL]	MIC, column D (Staph aureus 2811)	MIC, column E (Staph aureus 2812)
COc1ccc2nccc([C@@H](O)CC[C@@H]3CCN(C4CC(c5ccccc5)C4)C[C@@H]3c3nn[nH]n3)c2c1 (stereo partly drawn) [Example 224, (S)-1-(6-methoxyquinolin-4-yl)-3-((3R,4R)-1-(3-phenylcyclobutyl)-3-(2H-tetrazol-5-yl)piperidin-4-yl)propan-1-ol]	2 (≈ 4.01 µM)	0.25 (≈ 0.501 µM)	8 (≈ 16 µM)	0.25 (≈ 0.501 µM)	0.5 (≈ 1 µM)					
COc1ccc2ncc(F)c(C(O)CC[C@@H]3CCN([C@H]4C[C@H](c5c(F)cccc5F)C4)C[C@@H]3C(=O)O)c2c1 (stereo partly drawn) [Example 215, (3R,4R)-1-[trans-3-(2,6-difluorophenyl)cyclobutyl]-4-[3-(3-fluoro-6-methoxyquinolin-4-yl)-3-hydroxypropyl] piperidine-3-carboxylic acid]	< 0.0625	< 0.0625	1 (≈ 1.89 µM)	< 0.0625	< 0.0625					
COc1ccc2nccc(C(O)CC[C@@H]3CCN(C4CN(C5CCOCC5)C4)C[C@@H]3C(=O)O)c2c1 (stereo partly drawn) [Example 128, (3R,4R)-4-[3-hydroxy-3-(6-methoxyquinolin-4-yl)propyl]-1-[1-(tetrahydro-2H-pyran-4-yl)azetidin-3-yl] piperidine-3-carboxylic acid]	> 64	> 64	> 64	> 64	> 64					
O=C(O)[C@H]1CN(C2CC(c3ccccc3)C2)CC[C@H]1CCC(O)c1ccnc2ccc(OC(F)F)cc12 (stereo partly drawn) [Example 143]						1 µg/mL (≈ 1.96 µM)	0.5 µg/mL (≈ 0.979 µM)	2 (≈ 3.92 µM)	0.5 µg/mL (≈ 0.979 µM)	1 µg/mL (≈ 1.96 µM)
COc1ccc2ncc(F)c([C@@H](O)CNC3(C(=O)O)CCCN(C4CC(c5ccccc5)C4)CC3)c2c1 (single isomer, unassigned) [Example 150]						4 µg/mL (≈ 7.88 µM)	2 µg/mL (≈ 3.94 µM)	4 (≈ 7.88 µM)	2 µg/mL (≈ 3.94 µM)	2 µg/mL (≈ 3.94 µM)
COc1ccc2nccc([C@@H](O)CC[C@@H]3CCN(C4CC(c5ccc(F)cc5F)C4)C[C@@H]3C(=O)O)c2c1 (stereo partly drawn) [Example 37, (3R,4R)-1-[3-(2,4-difluorophenyl)cyclobutyl]-4-[(3S)-3-hydroxy-3-(6-methoxyquinolin-4-yl)propyl] piperidine-3-carboxylic acid]	0.25 (≈ 0.49 µM)	≤ 0.0625	1 (≈ 1.96 µM)	≤ 0.0625	0.25 (≈ 0.49 µM)					
COc1ccc2nccc(C(O)CC[C@@H]3CCN(C4CC(c5ccc(O)cc5)C4)C[C@@H]3C(=O)O)c2c1 (stereo partly drawn) [Example 31, (3R,4R)-4-[3-hydroxy-3-(6-methoxyquinolin-4-yl)propyl]-1-[3-(4-hydroxyphenyl)cyclobutyl] piperidine-3-carboxylic acid]	16 (≈ 32.6 µM)	32 (≈ 65.2 µM)	> 64	32 (≈ 65.2 µM)	32 (≈ 65.2 µM)					
COc1ccc2nccc(C(F)CC[C@@H]3CCN(C4CC(c5ccccc5)C4)C[C@@H]3C(=O)O)c2c1 (stereo partly drawn) [Example 134, (3R,4R)-4-(3-fluoro-3-(6-methoxyquinolin-4-yl)propyl)-1-(3-phenylcyclobutyl)piperidine-3-carboxylic acid]						<=.0625 μg/ml	<=.0625 μg/ml	4 (≈ 8.39 µM)	<=.0625 μg/ml	<=.0625 μg/ml
COc1ccc2ncc(F)c(CCCC3(C(=O)O)CCN(C4CC(c5ccccc5)C4)CC3)c2c1 (stereo not drawn) [Example 23, 4-[3-(3-fluoro-6-methoxyquinolin-4-yl)propyl]-1-(3-phenylcyclobutyl)piperidine-4-carboxylic acid]	≤ 0.0625	≤ 0.0625	> 64	≤ 0.0625	≤ 0.0625					
COc1ccc2ncc(F)c([C@@H](O)CC[C@@H]3CCN(C4CC(=O)N(c5ccccc5)C4)C[C@@H]3C(=O)O)c2c1 (stereo partly drawn) [Example 227]	8 (≈ 15.3 µM)	2 (≈ 3.83 µM)	64 (≈ 123 µM)	2 (≈ 3.83 µM)	8 (≈ 15.3 µM)					
COc1ccc2nccc(C(O)CC[C@@H]3CCN(C4CC(Cc5ccccc5)C4)C[C@@H]3C(=O)O)c2c1 (stereo partly drawn) [Example 103, (3R,4R)-1-(3-benzylcyclobutyl)-4-[3-hydroxy-3-(6-methoxyquinolin-4-yl)propyl]piperidine-3-carboxylic acid]	0.5 (≈ 1.02 µM)	0.25 (≈ 0.512 µM)	4 (≈ 8.19 µM)	0.25 (≈ 0.512 µM)	0.25 (≈ 0.512 µM)					
COc1ccc2nccc(C(CC[C@@H]3CCN(C4CC(c5ccccc5)C4)C[C@@H]3C(=O)O)OC)c2c1 (stereo partly drawn) [Example 11, (3R,4R)-4-[3-methoxy-3-(6-methoxyquinolin-4-yl)propyl]-1-(3-phenylcyclobutyl)piperidine-3-carboxylic acid]						1 µg/mL (≈ 2.05 µM)	2 µg/mL (≈ 4.09 µM)	>64	2 µg/mL (≈ 4.09 µM)	2 µg/mL (≈ 4.09 µM)
COc1ccc2nccc(C(O)CCC3CCN(C[C@@H]4C[C@H]4c4cc(F)ccc4F)CC3C(=O)O)c2c1 (relative stereo) [Example 26, 1-{[(trans)-2-(2,5-difluorophenyl)cyclopropyl]methyl}-4-[3-hydroxy-3-(6-methoxyquinolin-4-yl)propyl] piperidine-3-carboxylic acid]	1 (≈ 1.96 µM)	0.25 (≈ 0.49 µM)	4 (≈ 7.83 µM)	0.25 (≈ 0.49 µM)	0.25 (≈ 0.49 µM)					
COc1ccc2ncc(Cl)c(C(O)CC[C@@H]3CCN(C4CC(c5cc(F)ccc5F)C4)C[C@@H]3C(=O)O)c2c1 (stereo partly drawn) [Example 210, (3R,4R)-4-[3-(3-chloro-6-methoxyquinolin-4-yl)-3-hydroxypropyl]-1-[3-(2,5-difluorophenyl)cyclobutyl]piperidine-3-carboxylic acid]						<0.0625 µg/mL	<0.0625 µg/mL	16.0 (≈ 29.4 µM)	<0.0625 µg/mL	<0.0625 µg/mL
COc1ccc2nccc(C(O)CC[C@@H]3CCN(C4CC(c5cccc(Cl)c5)C4)C[C@@H]3C(=O)O)c2c1 (stereo partly drawn) [Example 29, (3R,4R)-1-[3-(3-chlorophenyl)cyclobutyl]-4-[3-hydroxy-3-(6-methoxyquinolin-4-yl)propyl] piperidine-3-carboxylic acid]	0.5 (≈ 0.982 µM)	0.25 (≈ 0.491 µM)	4 (≈ 7.86 µM)	0.25 (≈ 0.491 µM)	0.25 (≈ 0.491 µM)					
COc1ccc2ncc(F)c(C(O)CC[C@@H]3CCN(C4CC(c5cc(F)cc(F)c5)C4)C[C@@H]3C(=O)O)c2n1 (stereo partly drawn) [Example 222, (3R,4R)-1-[3-(3,5-difluorophenyl)cyclobutyl]-4-[3-(3-fluoro-6-methoxy-1,5-naphthyridin-4-yl)-3-hydroxypropyl]piperidine-3-carboxylic acid]	0.25 (≈ 0.472 µM)	< 0.0625	2 (≈ 3.78 µM)	< 0.0625	< 0.0625					
COc1ccc2nccc([C@@H](O)CC[C@@H]3CCN(C4CC(c5ccc(F)c(C#N)c5)C4)C[C@@H]3C(=O)O)c2c1 (stereo partly drawn) [Example 216, (3R,4R)-1-[3-(3-cyano-4-fluorophenyl)cyclobutyl]-4-[(3S)-3-hydroxy-3-(6-methoxyquinolin-4-yl)propyl] piperidine-3-carboxylic acid]	> 64	16 (≈ 30.9 µM)	64 (≈ 124 µM)	8 (≈ 15.5 µM)	32 (≈ 61.8 µM)					
3-{[2-(3-chloro-8-methoxyquinolin-4-yl)ethyl]amino}-1-(trans-3-phenylcyclobutyl)pyrrolidine-3-carboxylic acid [Example 114]						1 µg/mL	0.5 µg/mL	>64	0.5 µg/mL	0.5 µg/mL
COc1ccc2nccc([C@@H](O)CC[C@@H]3CCN(C4CC(c5ccc(-c6ccccc6)cc5)C4)C[C@@H]3C(=O)O)c2c1 (stereo partly drawn) [Example 70, (3R,4R)-1-(3-biphenyl-4-ylcyclobutyl)-4-[(3S)-3-hydroxy-3-(6-methoxyquinolin-4-yl)propyl] piperidine-3-carboxylic acid]						>64 µg/mL				
COc1ccc2ncc(F)c(C(O)CC[C@@H]3CCN(C4CC(Sc5cc(F)ccc5F)C4)C[C@@H]3C(=O)O)c2c1 (stereo partly drawn) [Example 229, (3R,4R)-1-[3-(2,5-Difluoro-phenylsulfanyl)-cyclobutyl]-4-[(S)-3-(3-fluoro-6-methoxy-quinolin-4-yl)-3-hydroxy-propyl]-piperidine-3-carboxylic acid]			32 (≈ 57.1 µM)							
COc1ccc2nccc(C(O)CC[C@@H]3CCN(C4CC(c5cccc(F)c5F)C4)C[C@@H]3C(=O)O)c2c1 (stereo partly drawn) [Example 58, (3R,4R)-1-[3-(2,3-difluorophenyl)cyclobutyl]-4-[3-hydroxy-3-(6-methoxyquinolin-4-yl)propyl] piperidine-3-carboxylic acid]								2 (≈ 3.92 µM)		
